Data from patent publication EP0880966A1, “THIAMINE DISULFIDES AND MEDICINES CONTAINING THE SAME AS THE ACTIVE INGREDIENT” (NISSUI PHARMACEUTICAL CO., LTD., priority 1996, dated 1998).
Read-outs that look alike come from different tables or passages of the source.

Tested on: CEM/LAV-1
Settings: for TCID50/ml / Inhibition rate (%): CEM/LAV-1 cells cultured 96 hours; for TCID50/ml: titer by 72-hour culture on MT-4 cells, control 4 x 10^5; for Inhibition rate (%): versus control without agent
Protocol: A test agent was added at predetermined concentrations to cells (2 x 10^5 cells/ml, 10 ml) persistently infected with HIV in a logarithmic growth phase to culture the cells for 96 hours. The number of viable cells and the number of killed cells were counted every 24 hours by a trypan blue dye exclusion test to determine the cytotoxic effect of the test agent on the cells. A viral infectious titer (TCID50/ml) in each of the culture solutions incubated for 96 hours was determined by 72-hour culture using, as an index, the giant cell formation of MT-4 cells. In a control group, the cells were cultured in a medium free of any agent. An anti-HIV activity (inhibition %) was determined in accordance with the following equation: Anti-HIV activity (inhibition %) =(TC)/(TC)x 100 [formula]

CCCCCCCCCCCCCC(=O)OCC/C(SS/C(CCOC(=O)CCCCCCCCCCCCC)=C(/C)N(C=O)Cc1cnc(C)nc1N)=C(\C)N(C=O)Cc1cnc(C)nc1N [compound (1), thiamine disulfide dimyristate]
inhibitory effect (CEM/LAV-1 cells, concentration of from 50 to 125 µm): ~100%
TCID50/ml (Invention compound 50 µM): 8 x 10^2 TCID50/ml
Inhibition rate (%) (Invention compound 50 µM): 99.5%
TCID50/ml (Invention compound 125 µM): 8 x 10^2 TCID50/ml
Inhibition rate (%) (Invention compound 125 µM): 99.5%
